The record followed here is patent US9108921B2, “Therapeutic compounds and compositions” (AGIOS PHARMACEUTICALS, INC, priority 2014, dated 2015).

By AC50 is commonly meant the concentration at which the activity in the assay is half-maximal. Higher therefore signals weaker potency.

The target in assay [1] is T1, PKR WT (Homo sapiens, UniProt P30613). As to the kind of experiment: PKR WT cell based AC50 assay. Conditions: wild type PKR.
Assay [2] deals with PKR R510Q (Homo sapiens, UniProt P30613, R510Q). As to the kind of experiment: PKR Mutant Assay, AC50 against PKR R510Q. The format is biochemical. Conditions: mutant PKR R510Q enzyme. The essentials: (§1)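 Human PKR (WT or mutant, 80-400 ng/well) in 50 mM Tris pH 7.5, 100 mM KCl, 5 mM MgCl2, 1 mM DTT, 0.03% BSA with PEP 0.1-0.5 mM, NADH 180 uM and LDH, preincubated 60 min at room temperature with compound (11-point 3-fold series from 100 μM final, 1% DMSO). ADP 0.22-1.65 mM started reaction; A340 followed.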
Chain of PKR R510Q (P30613 whole entry R510Q): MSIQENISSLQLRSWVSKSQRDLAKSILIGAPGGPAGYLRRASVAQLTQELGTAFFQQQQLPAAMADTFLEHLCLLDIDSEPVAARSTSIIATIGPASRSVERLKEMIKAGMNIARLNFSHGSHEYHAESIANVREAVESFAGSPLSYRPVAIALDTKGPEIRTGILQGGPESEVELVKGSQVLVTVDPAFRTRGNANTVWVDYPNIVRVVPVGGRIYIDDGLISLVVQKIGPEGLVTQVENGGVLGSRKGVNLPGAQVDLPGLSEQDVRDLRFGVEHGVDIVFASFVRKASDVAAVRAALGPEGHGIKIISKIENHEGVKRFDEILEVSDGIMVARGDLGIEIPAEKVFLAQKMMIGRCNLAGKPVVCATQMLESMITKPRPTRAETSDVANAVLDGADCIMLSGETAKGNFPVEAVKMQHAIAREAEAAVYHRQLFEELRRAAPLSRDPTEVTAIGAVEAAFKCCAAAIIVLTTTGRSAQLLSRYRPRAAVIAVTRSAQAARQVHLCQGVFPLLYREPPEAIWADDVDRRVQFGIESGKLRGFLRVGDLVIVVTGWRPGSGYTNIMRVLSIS

Assay [3] concerns the target T1, PKR WT. As to the kind of experiment: PKR WT enzymatic AC50 assay. Format: biochemical. Conditions: wild type PKR. The essentials:
as §1

Assay [4] has as its target PKR R532W (Homo sapiens, UniProt P30613, R532W). As to the kind of experiment: PKR Mutant Assay, AC50 against PKR R532W. Conditions: mutant PKR R532W enzyme. The format is biochemical. Summed up:
as §1

Chain of PKR R532W (P30613 whole entry R532W): as the sequence (P30613 whole entry R510Q) above, with Q510R, R532W counted along it
T1 sequence (P30613 whole entry): as the sequence (P30613 whole entry R510Q) above, with Q510R counted along it

Consider `O=C(c1ccc(NS(=O)(=O)c2cccc3cccnc23)cc1)N1CCC(O)(c2ccncc2Cl)CC1` [Compound 161, N-(4-(4-(3-chloropyridin-4-yl)-4-hydroxypiperidine-1-carbonyl)phenyl)quinoline-8-sulfonamide], for which the concentration at half-maximal activity (AC50) was below 100 nM in assay [1], 101 to 1000 nM in assay [2], below 100 nM in assay [3] and below 100 nM in assay [4].
Regarding `O=C(c1ccc(NS(=O)(=O)c2cccc3nccnc23)cc1)N1CCC(O)(c2ccccc2Cl)CC1` [Compound 162, N-(4-(4-(2-chlorophenyl)-4-hydroxypiperidine-1-carbonyl)phenyl)quinoxaline-5-sulfonamide], the AC50 in assay [1] is below 100 nM; in assay [2], 101 to 1000 nM; in assay [3] it was below 100 nM; in assay [4], below 100 nM.
`O=C(c1ccc(NS(=O)(=O)c2cccc3cccnc23)c(F)c1)N1CCC(O)(Cc2ccccc2)CC1` [Compound 163, N-(4-(4-benzyl-4-hydroxypiperidine-1-carbonyl)-2-fluorophenyl)quinoline-8-sulfonamide]: the AC50 in assay [1] is below 100 nM; in assay [2], 101 to 1000 nM; in assay [3], below 100 nM; in assay [4] it was below 100 nM.
In the case of `O=C(c1ccc(NS(=O)(=O)c2cccc3cccnc23)cc1)N1CCC(O)(c2ncccc2C(F)(F)F)CC1` [Compound 164, N-(4-(4-hydroxy-4-(3-(trifluoromethyl)pyridin-2-yl)piperidine-1-carbonyl)phenyl)quinoline-8-sulfonamide], the AC50 in assay [1] was below 100 nM; in assay [2], 101 to 1000 nM; in assay [3], below 100 nM; in assay [4], below 100 nM.
In the case of `O=C(c1ccc(NS(=O)(=O)c2cccc3cccnc23)cc1)N1CCC(O)(c2ccccc2F)CC1` [Compound 165, N-(4-(4-(2-fluorophenyl)-4-hydroxypiperidine-1-carbonyl)phenyl)quinoline-8-sulfonamide], the AC50 in assay [1] is below 100 nM; in assay [2] it was 101 to 1000 nM; in assay [3], below 100 nM; in assay [4] it was below 100 nM.
Regarding `O=C(c1ccc(NS(=O)(=O)c2cccc3cccnc23)cc1)N1CCC(O)(c2cc(F)ccc2Cl)CC1` [Compound 166], the AC50 in assay [1] was below 100 nM; in assay [2] it was 101 to 1000 nM; in assay [3], below 100 nM; in assay [4], below 100 nM.
With `CCCCC1(O)CCN(C(=O)c2ccc(NS(=O)(=O)c3cccc4cccnc34)cc2)CC1` [Compound 167, N-(4-(4-butyl-4-hydroxypiperidine-1-carbonyl)phenyl)quinoline-8-sulfonamide], the AC50 in assay [1], in assay [2], in assay [3] and in assay [4] was below 100 nM in each case.
On to `O=C(c1ccc(NS(=O)(=O)c2cccc3cccnc23)cc1)N1CCC(O)(Cc2cccnc2F)CC1` [Compound 168, N-(4-(4-((2-fluoropyridin-3-yl)methyl)-4-hydroxypiperidine-1-carbonyl)phenyl)quinoline-8-sulfonamide], for which the AC50 in assay [1] was below 100 nM; in assay [2] it was 101 to 1000 nM; in assay [3], below 100 nM; in assay [4] it was below 100 nM.
Take `O=C(c1ccc(NS(=O)(=O)c2cccc3cccnc23)cc1)N1CCC(O)(Cc2cccc(F)c2F)CC1` [Compound 169, N-(4-(4-(2,3-difluorobenzyl)-4-hydroxypiperidine-1-carbonyl)phenyl)quinoline-8-sulfonamide]: the AC50 was below 100 nM in assay [1], 101 to 1000 nM in assay [2], below 100 nM in assay [3] and below 100 nM in assay [4].
Take `COc1cc(NS(=O)(=O)c2cccc3cccnc23)ccc1C(=O)N1CCC(O)(c2ccccc2Cl)CC1` [Compound 170, N-(4-(4-(2-chlorophenyl)-4-hydroxypiperidine-1-carbonyl)-3-methoxyphenyl)quinoline-8-sulfonamide]: the AC50 in assay [1] is 101 to 1000 nM; in assay [2] it was 101 to 1000 nM; in assay [3], below 100 nM; in assay [4], below 100 nM.
As to `Cc1nc(C2(O)CCN(C(=O)c3ccc(NS(=O)(=O)c4cccc5cccnc45)cc3)CC2)ccc1F` [Compound 171, N-(4-(4-(5-fluoro-6-methylpyridin-2-yl)-4-hydroxypiperidine-1-carbonyl)phenyl)quinoline-8-sulfonamide], the AC50 in assay [1] is 101 to 1000 nM; in assay [2] it was 101 to 1000 nM; in assay [3] it was below 100 nM; in assay [4], below 100 nM.
Consider `CC(C)CC1(CO)CCN(C(=O)c2ccc(NS(=O)(=O)c3cccc4cccnc34)cc2)CC1` [Compound 172, N-(4-(4-(hydroxymethyl)-4-isobutylpiperidine-1-carbonyl)phenyl)quinoline-8-sulfonamide], for which the AC50 in assay [1], in assay [2], in assay [3] and in assay [4] was below 100 nM each time.
Take `CC(C)CC1(O)CCN(C(=O)c2ccc(NS(=O)(=O)c3cccc4scnc34)cc2)CC1` [Compound 173, N-(4-(4-hydroxy-4-isobutylpiperidine-1-carbonyl)phenyl)benzo[d]thiazole-4-sulfonamide]: the AC50 in assay [1], in assay [2], in assay [3] and in assay [4] was below 100 nM throughout.
In the case of `O=C(c1ccc(NS(=O)(=O)c2cccc3cccnc23)cc1)N1CCC(O)(c2cccc(C(F)(F)F)n2)CC1` [Compound 174, N-[4-[4-hydroxy-4-[6-(trifluoromethyl)pyridin-2-yl]piperidine-1-carbonyl]phenyl]quinoline-8-sulfonamide], the AC50 in assay [1] is below 100 nM; in assay [2], 101 to 1000 nM; in assay [3] it was below 100 nM; in assay [4], below 100 nM.
Regarding `Cc1cc(C(=O)N2CCC(O)(c3cccc(F)c3F)CC2)ccc1NS(=O)(=O)c1cccc2nccnc12` [Compound 175, N-(4-(4-(2,3-difluorophenyl)-4-hydroxypiperidine-1-carbonyl)-2-methylphenyl)quinoxaline-5-sulfonamide], the AC50 in assay [1] was below 100 nM; in assay [2] it was 101 to 1000 nM; in assay [3], below 100 nM; in assay [4] it was below 100 nM.
In the case of `O=C(c1ccc(NS(=O)(=O)c2cccc3cccnc23)cc1)N1CCC(O)(CC2CC2(F)F)CC1` (stereo not drawn) [Compound 176, N-(4-(4-((2,2-difluorocyclopropyl)methyl)-4-hydroxypiperidine-1-carbonyl)phenyl)quinoline-8-sulfonamide], the AC50 in assay [1] was below 100 nM; in assay [2] it was 101 to 1000 nM; in assay [3] it was below 100 nM; in assay [4], below 100 nM.
On to `O=C(c1ccc(NS(=O)(=O)c2cccc3scnc23)cc1)N1CCC(O)(c2cccc(F)c2F)CC1` [Compound 178, N-(4-(4-(2,3-difluorophenyl)-4-hydroxypiperidine-1-carbonyl)phenyl)benzo[d]thiazole-4-sulfonamide], for which the AC50 was below 100 nM in assay [1], 101 to 1000 nM in assay [2], below 100 nM in assay [3] and below 100 nM in assay [4].
For the compound `O=C(c1ccc(NS(=O)(=O)c2ccc(F)c3cccnc23)cc1)N1CCC(O)(c2ccccc2Cl)CC1` [Compound 179, N-(4-(4-(2-chlorophenyl)-4-hydroxypiperidine-1-carbonyl)phenyl)-5-fluoroquinoline-8-sulfonamide], the AC50 in assay [1] is below 100 nM; in assay [2], 101 to 1000 nM; in assay [3], below 100 nM; in assay [4], below 100 nM.
Regarding `O=C(c1ccc(NS(=O)(=O)c2cccc3cccnc23)cc1)N1CCC(O)(c2cnsc2)CC1` [Compound 180], the AC50 in assay [1] was below 100 nM; in assay [2] it was 101 to 1000 nM; in assay [3], below 100 nM; in assay [4], below 100 nM.
For `CCCC1(O)CCN(C(=O)c2ccc(NS(=O)(=O)c3cccc4cccnc34)cc2)CC1` [Compound 183, N-(4-(4-hydroxy-4-propylpiperidine-1-carbonyl)phenyl)quinoline-8-sulfonamide], the AC50 in assay [1] is below 100 nM; in assay [2] it was 101 to 1000 nM; in assay [3] it was below 100 nM; in assay [4] it was below 100 nM.
Regarding `COc1ccccc1C1(O)CCN(C(=O)c2ccc(NS(=O)(=O)c3cccc4cccnc34)cc2)CC1` [Compound 184, N-(4-(4-hydroxy-4-(2-methoxyphenyl)piperidine-1-carbonyl)phenyl)quinoline-8-sulfonamide], the AC50 in assay [1] was 101 to 1000 nM; in assay [2], 101 to 1000 nM; in assay [3], below 100 nM; in assay [4] it was below 100 nM.
For `O=C(c1ccc(NS(=O)(=O)c2cccc3cccnc23)cc1)N1CCC(O)(Cc2cccnc2)CC1` [Compound 185, N-(4-(4-hydroxy-4-(pyridin-3-ylmethyl)piperidine-1-carbonyl)phenyl)quinoline-8-sulfonamide], the AC50 in assay [1] was 101 to 1000 nM; in assay [2], 101 to 1000 nM; in assay [3], below 100 nM; in assay [4] it was below 100 nM.
In the case of `O=C(c1ccc(NS(=O)(=O)c2cccc3ccoc23)cc1)N1CCC(O)(c2ccccc2Cl)CC1` [Compound 186, N-(4-(4-(2-chlorophenyl)-4-hydroxypiperidine-1-carbonyl)phenyl)benzofuran-7-sulfonamide], the concentration at half-maximal activity (AC50) in assay [1] is 101 to 1000 nM; in assay [2], 101 to 1000 nM; in assay [3] it was below 100 nM; in assay [4], below 100 nM.
Consider `CC(C)(C)CC1(O)CCN(C(=O)c2ccc(NS(=O)(=O)c3ccc(F)c4cccnc34)cc2)CC1` [Compound 187, 5-fluoro-N-(4-(4-hydroxy-4-neopentylpiperidine-1-carbonyl)phenyl)quinoline-8-sulfonamide], for which the AC50 in assay [1], in assay [2], in assay [3] and in assay [4] was below 100 nM in each case.
